Source: patent US11292821B2, “Peptides and combination of peptides for use in immunotherapy against lung cancer, including NSCLC, SCLC and other cancers” (Immatics Biotechnologies GmbH, priority 2017, dated 2022)

How the values were obtained:
[1] = target: HLA-A*02 (Homo sapiens, UniProt P04439, D140Y/D185E/D98H/E176V/E277Q/G131W/G231S/I119V/I121R/I166T/I218V/N151K/N90K/P208A/P217A/Q86G/Q94H/R138H/R169H); assay: MHC binding assay (UV-ligand exchange, β2m ELISA)
[2] = test system: CD8+ T cells; assay: In vitro T-cell priming assay with aAPCs (in vitro immunogenicity for MHC class I presented peptides); assay type: cell-based, human; settings: in vitro immunogenicity
[3] = test system: HLA-B*44; assay: MHC binding assay (UV-ligand exchange, β2m ELISA); set-up: species or system human; settings: for Peptide exchange (peptide exchange yield, MHC class I binding score): UV-ligand exchange, β2m ELISA

Substance: 84 (YVDINTFRL; listed as Homo sapiens) [compound 84]
- Peptide exchange (peptide exchange yield, MHC class I binding score) [1]: “++++” (>75% = ++++)
- Wells positive [%] ([2]; HLA A*02): “+” (<20% = +)

Substance: 85 (YIDEFQSLV; listed as Homo sapiens) [compound 85]
- Peptide exchange (peptide exchange yield, MHC class I binding score) [1]: “++++” (>75% = ++++)
- Wells positive [%] ([2]; HLA A*02): “++” (20%-49% = ++)

Substance: 86 (FVIDGFDEL; listed as Homo sapiens) [compound 86]
- Peptide exchange (peptide exchange yield, MHC class I binding score) [1]: “++++” (>75% = ++++)

Substance: 91 (FALPGLLHA; listed as Homo sapiens) [compound 91]
- Peptide exchange (peptide exchange yield, MHC class I binding score) [1]: “+++” (>50 = +++)

Substance: 92 (NLRDLLSEV; listed as Homo sapiens) [compound 92]
- Peptide exchange (peptide exchange yield, MHC class I binding score) [1]: “+++” (>50 = +++)

Substance: 98 (LQSSGLTLLL; listed as Homo sapiens) [compound 98]
- Peptide exchange (peptide exchange yield, MHC class I binding score) [1]: “++++” (>75% = ++++)

Substance: 99 (FLKEKVPGI; listed as Homo sapiens) [compound 99]
- Peptide exchange (peptide exchange yield, MHC class I binding score) [1]: “++++” (>75% = ++++)

Substance: 100 (RQYPTPFQL; listed as Homo sapiens) [compound 100]
- Peptide exchange (peptide exchange yield, MHC class I binding score) [1]: “++++” (>75% = ++++)

Substance: 102 (SLLEQAIAL; listed as Homo sapiens) [compound 102]
- Peptide exchange (peptide exchange yield, MHC class I binding score) [1]: “++++” (>75% = ++++)

Substance: 103 (FLYYPDPVL; listed as Homo sapiens) [compound 103]
- Peptide exchange (peptide exchange yield, MHC class I binding score) [1]: “++++” (>75% = ++++)

Substance: 104 (GMLDIFWGV; listed as Homo sapiens) [compound 104]
- Peptide exchange (peptide exchange yield, MHC class I binding score) [1]: “++++” (>75% = ++++)

Substance: 105 (SLLTHIPTA; listed as Homo sapiens) [compound 105]
- Peptide exchange (peptide exchange yield, MHC class I binding score) [1]: “++++” (>75% = ++++)

Substance: 106 (FIIDTTYPAYV; listed as Homo sapiens) [compound 106]
- Peptide exchange (peptide exchange yield, MHC class I binding score) [1]: “++++” (>75% = ++++)

Substance: 107 (LLQGAIESV; listed as Homo sapiens) [compound 107]
- Peptide exchange (peptide exchange yield, MHC class I binding score) [1]: “++++” (>75% = ++++)

Substance: 109 (LLLGSIGLLGV; listed as Homo sapiens) [compound 109]
- Peptide exchange (peptide exchange yield, MHC class I binding score) [1]: “++++” (>75% = ++++)

Substance: 110 (LLADFQALL; listed as Homo sapiens) [compound 110]
- Peptide exchange (peptide exchange yield, MHC class I binding score) [1]: “++++” (>75% = ++++)

Substance: 111 (ALCLLLHLL; listed as Homo sapiens) [compound 111]
- Peptide exchange (peptide exchange yield, MHC class I binding score) [1]: “+” (>10% = +)

Substance: 112 (SVSDGIHSV; listed as Homo sapiens) [compound 112]
- Peptide exchange (peptide exchange yield, MHC class I binding score) [1]: “++++” (>75% = ++++)

Substance: 113 (AVLTGLVEV; listed as Homo sapiens) [compound 113]
- Peptide exchange (peptide exchange yield, MHC class I binding score) [1]: “++++” (>75% = ++++)

Substance: 114 (ILDERQVLL; listed as Homo sapiens) [compound 114]
- Peptide exchange (peptide exchange yield, MHC class I binding score) [1]: “++++” (>75% = ++++)

Substance: 115 (MLLETQDALYV; listed as Homo sapiens) [compound 115]
- Peptide exchange (peptide exchange yield, MHC class I binding score) [1]: “++++” (>75% = ++++)

Substance: 116 (VLMEENSKL; listed as Homo sapiens) [compound 116]
- Peptide exchange (peptide exchange yield, MHC class I binding score) [1]: “++++” (>75% = ++++)

Substance: 117 (FLDPNARPLV; listed as Homo sapiens) [compound 117]
- Peptide exchange (peptide exchange yield, MHC class I binding score) [1]: “++++” (>75% = ++++)

Substance: 118 (ALSSVLHSI; listed as Homo sapiens) [compound 118]
- Peptide exchange (peptide exchange yield, MHC class I binding score) [1]: “++++” (>75% = ++++)

Substance: 119 (RTADITVTV; listed as Homo sapiens) [compound 119]
- Peptide exchange (peptide exchange yield, MHC class I binding score) [1]: “++++” (>75% = ++++)

Substance: 120 (ALLANLPAV; listed as Homo sapiens) [compound 120]
- Peptide exchange (peptide exchange yield, MHC class I binding score) [1]: “++++” (>75% = ++++)

Substance: 121 (ALVDTLTGI; listed as Homo sapiens) [compound 121]
- Peptide exchange (peptide exchange yield, MHC class I binding score) [1]: “++++” (>75% = ++++)

Substance: 122 (ALLEMFPEITV; listed as Homo sapiens) [compound 122]
- Peptide exchange (peptide exchange yield, MHC class I binding score) [1]: “++++” (>75% = ++++)

Substance: 123 (LMAFFLAVV; listed as Homo sapiens) [compound 123]
- Peptide exchange (peptide exchange yield, MHC class I binding score) [1]: “++” (>20% = ++)

Substance: 124 (SVASVLLYL; listed as Homo sapiens) [compound 124]
- Peptide exchange (peptide exchange yield, MHC class I binding score) [1]: “++++” (>75% = ++++)

Substance: 126 (FLSTVTSV; listed as Homo sapiens) [compound 126]
- Peptide exchange (peptide exchange yield, MHC class I binding score) [1]: “++++” (>75% = ++++)

Substance: 320 (MEVDPIGHVYIF; listed as Homo sapiens) [compound 320]
- Peptide exchange (peptide exchange yield, MHC class I binding score) [3]: “++++” (>75% = ++++)
- Wells positive [%] ([2]; HLA B*44): “+” (<20% = +)

Substance: 322 (KEVDPAGHSY; listed as Homo sapiens) [compound 322]
- Peptide exchange (peptide exchange yield, MHC class I binding score) [3]: “++” (>20% = ++)
- Wells positive [%] ([2]; HLA B*44): “++” (20%-49% = ++)

Substance: 323 (SEFMQVIF; listed as Homo sapiens) [compound 323]
- Peptide exchange (peptide exchange yield, MHC class I binding score) [3]: “+++” (>50 =+++)
- Wells positive [%] ([2]; HLA B*44): “+” (<20% = +)

Substance: 325 (QEQDVDLVQKY; listed as Homo sapiens) [compound 325]
- Peptide exchange (peptide exchange yield, MHC class I binding score) [3]: “++” (>20% = ++)
- Wells positive [%] ([2]; HLA B*44): “+” (<20% = +)

Substance: 326 (QEMQHFLGL; listed as Homo sapiens) [compound 326]
- Peptide exchange (peptide exchange yield, MHC class I binding score) [3]: “+++” (>50 =+++)
- Wells positive [%] ([2]; HLA B*44): “+” (<20% = +)

Substance: 328 (FEYDFLLQRI; listed as Homo sapiens) [compound 328]
- Peptide exchange (peptide exchange yield, MHC class I binding score) [3]: “++++” (>75% = ++++)
- Wells positive [%] ([2]; HLA B*44): “+” (<20% = +)

Substance: 329 (NEHPSNNW; listed as Homo sapiens) [compound 329]
- Peptide exchange (peptide exchange yield, MHC class I binding score) [3]: “+++” (>50 =+++)
- Wells positive [%] ([2]; HLA B*44): “+” (<20% = +)

Substance: 330 (KEGDLGGKQW; listed as Homo sapiens) [compound 330]
- Peptide exchange (peptide exchange yield, MHC class I binding score) [3]: “+++” (>50 =+++)
- Wells positive [%] ([2]; HLA B*44): “+” (<20% = +)

Substance: 331 (EDAQGHIW; listed as Homo sapiens) [compound 331]
- Peptide exchange (peptide exchange yield, MHC class I binding score) [3]: “+++” (>50 =+++)
- Wells positive [%] ([2]; HLA B*44): “++” (20%-49% = ++)

Substance: 333 (AETLSTIQI; listed as Homo sapiens) [compound 333]
- Peptide exchange (peptide exchange yield, MHC class I binding score) [3]: “+++” (>50 =+++)
- Wells positive [%] ([2]; HLA B*44): “+” (<20% = +)

Substance: 334 (AEDEPAAAHL; listed as Homo sapiens) [compound 334]
- Peptide exchange (peptide exchange yield, MHC class I binding score) [3]: “++” (>20% = ++)
- Wells positive [%] ([2]; HLA B*44): “+” (<20% = +)

Substance: 337 (TENRYCVQL; listed as Homo sapiens) [compound 337]
- Peptide exchange (peptide exchange yield, MHC class I binding score) [3]: “++++” (>75% = ++++)
- Wells positive [%] ([2]; HLA B*44): “++” (20%-49% = ++)

Substance: 338 (SEGSEPALLHSW; listed as Homo sapiens) [compound 338]
- Peptide exchange (peptide exchange yield, MHC class I binding score) [3]: “+++” (>50 =+++)
- Wells positive [%] ([2]; HLA B*44): “+” (<20% = +)

Substance: 339 (SEPALLHSW; listed as Homo sapiens) [compound 339]
- Peptide exchange (peptide exchange yield, MHC class I binding score) [3]: “+++” (>50 =+++)
- Wells positive [%] ([2]; HLA B*44): “++” (20%-49% = ++)

Substance: 342 (HEFSSPSHL; listed as Homo sapiens) [compound 342]
- Peptide exchange (peptide exchange yield, MHC class I binding score) [3]: “+++” (>50 =+++)
- Wells positive [%] ([2]; HLA B*44): “+” (<20% = +)

Substance: 388 (FSIPEGALVAV; listed as Homo sapiens) [compound 388]
- Peptide exchange (peptide exchange yield, MHC class I binding score) [1]: “++++” (>75% = ++++)

Substance: 389 (TLMEQPLTTL; listed as Homo sapiens) [compound 389]
- Peptide exchange (peptide exchange yield, MHC class I binding score) [1]: “++++” (>75% = ++++)

Substance: 390 (HIMPTVHTV; listed as Homo sapiens) [compound 390]
- Peptide exchange (peptide exchange yield, MHC class I binding score) [1]: “++++” (>75% = ++++)

Substance: 391 (SLIDMRGIETV; listed as Homo sapiens) [compound 391]
- Peptide exchange (peptide exchange yield, MHC class I binding score) [1]: “++++” (>75% = ++++)

Substance: 476 (AEEEIMKKI; listed as Homo sapiens) [compound 476]
- Peptide exchange (peptide exchange yield, MHC class I binding score) [3]: “++” (>20% = ++)
- Wells positive [%] ([2]; HLA B*44): “+” (<20% = +)

Substance: 477 (QENSYQSRL; listed as Homo sapiens) [compound 477]
- Peptide exchange (peptide exchange yield, MHC class I binding score) [3]: “+++” (>50 =+++)
- Wells positive [%] ([2]; HLA B*44): “+” (<20% = +)

Substance: 489 (SEIGKAVGF; listed as Homo sapiens) [compound 489]
- Peptide exchange (peptide exchange yield, MHC class I binding score) [3]: “++++” (>75% = ++++)

Substance: AEIEADRSY (listed as Homo sapiens) [SEQ ID NO: 531]
- binding to HLA allotype [3]: binds to HLA-B*44
